Source: patent US20160223554A1, “METHODS FOR DIAGNOSIS, PROGNOSIS AND METHODS OF TREATMENT” (priority 2011, published 2016)

Assays:
Type in all cases: cell-based, human
AML blasts [1] = assay: DNA damage response (p-H2AX, p-Chk2) to chemotherapeutics in primary AML samples (Example 20); details: for timing of induced DNA damage (pH2AX) relative to apoptosis: primary AML samples; for DDR: pH2AX, 48 hour treatment
Protocol: (§1) Cryopreserved peripheral blood (PBMC) or bone marrow (BMMC) mononuclear cells were obtained from patients with a new diagnosis of AML treated at British Columbia Cancer Agency or Lucile Packard Children's Hospital at Stanford University. All patients provided informed consent for research purposes. Samples were processed (thawed, modulated, fixed, permeabilized, and incubated with antibodies to both surface and intracellular proteins) as previously described (Kornblau, Minden et al., Dynamic single-cell network profiles in acute myelogenous leukemia are associated with patient response to standard induction therapy, 2010, Journal/Clin Cancer Res, 16, 14, 3721-3733; Rosen, Minden et al., Functional characterization of FLT3 receptor signaling deregulation in acute myeloid leukemia by single cell network profiling (SCNP), 2010, Journal/PLoS One, 5, 10, e13543). In this study, cellular DNA damage repair (DDR) and apoptosis were measured simultaneously in AML blasts after exposure to chemotherapeutic agents. Antibodies against phosphorylated (p)-H2AX or p-Chk2 were used to measure the DDR to DSB, while simultaneous measurements of cleaved PARP (c-PARP) and amine aqua viability dye were used to quantify apoptosis and cell death. Chemotherapeutics included Ara-C/Dauno (the two drugs currently used in standard AML induction therapy), Gemtuzumab Ozogamicin (GO), and three other agents currently being evaluated in AML clinical trials [Decitabine (DEC), 5-azacytidine (AZA) and Clofarabine (CLO)]. […] Drug-specific incubation times were chosen to analyze both DDR and apoptosis readouts: Ara-C/Dauno (24 hours), GO, CLO, AZA, DEC (48 hours). […] Similarly, apoptosis responses were not observed for DEC until 48 hours and were higher for AZA at 48 hours (data not shown). PI3Kinase/Akt and Raf/Ras pathway activities were assessed using stem cell factor (SCF) induced p-Akt and p-Erk readouts. Data was acquired on an LSRII flow cytometer and leukemic cells were identified by CD45 versus right-angle light-scatter. Metrics for DDR (Log2Fold) and induced apoptosis have been described previously (Rosen, Putta et al., Distinct patterns of DNA damage response and apoptosis correlate with Jak/Stat and PI3kinase response profiles in human acute myelogenous leukemia, 2010, Journal/PLoS One, 5, 8, e12405).

AML blasts [2] = assay: In vitro drug-induced apoptosis (c-PARP, amine aqua) in primary AML samples (Example 20); details: for cells induced to undergo apoptosis: sample COG-06 (MDR+); for cells induced to undergo apoptosis / cells undergoing apoptosis / apoptotic cells: 48 hours, CLO 0.25 μM, AZA 2.5 μM, DEC 0.625 μM; for Apo: 48 hour treatment; for cells undergoing apoptosis: sample COG-07
Protocol: as §1

AML blasts [3] = assay: SCNP signaling and apoptosis nodes in AML BMMC (Example 4, Study No. 2)
AML blasts [4] = assay: SCNP phospho-flow signaling nodes in AML PBMC (Example 2, Study No. 1); details: for Mean Value of CRs: CR patients; for Mean Value of CRs / Mean Value of NRs: Study No. 1; for Mean Value of NRs: NR patients
Protocol: Frozen cells are thawed in a 37° C. water bath and gently resuspended in the vial and transferred to the 15 mL conical tube. The 15 mL tube is centrifuged at 930 RPM (200×g) for 8 minutes at room temperature. The supernatant is aspirated and the pellet is gently resuspended in 1 mL media A. The cell suspension is filtered through a 70 um cell strainer into a new 15 mL tube. The cell strainer is rinsed with 1 mL media A and another 12 ml of media A into the 15 mL tube. The cells are mixed into an even suspension. A 20 μL aliquot is immediately removed into a 96-well plate containing 180 μL PBS+4% FBS+CD45 Alexa 700+PI to determine cell count and viability post spin. After the determination, the 15 mL tubes are centrifuged at 930 RPM (200×g) for 8 minutes at room temperature. The supernatant is aspirated and the cell pellet is gently resuspended in 4 mL PBS+4 μL Amine Aqua and incubated for 15 min in a 37° C. incubator. 10 mL RPMI+1% FBS is added to the cell suspension and the tube is inverted to mix the cells. The 15 mL tubes are centrifuged at 930 RPM (200×g) for 8 minutes at room temperature. The cells are resuspended in Media A at the desired cell concentration (1.25×10^6/mL). For samples with low numbers of cells (<18.5×10^6), the cells are resuspended in up to 15 mL media. For samples with high numbers of cells (>18.5×10^6), the volume is raised to 10 mL with media A and the desired volume is transferred to a new 15 mL tube, and the cell concentration is adjusted to 1.25×10^6 cells/ml. 1.6 mL of the above cell suspension (concentration at 1.25×10^6 cells/ml) is transferred into wells of a multi-well plate. From this plate, 80 ul is dispensed into each well of a subsequent plate. The plates are covered with a lid (Nunc) and placed in a 37° C. incubator for 2 hours to rest.
A concentration for each stimulant that is five folds more (5×) than the final concentration is prepared using Media A as diluent. 5× stimuli are arrayed into wells of a standard 96 well v-bottom plate that correspond to the wells on the plate with cells to be stimulated.
Adding the stimulant: The cell plate(s) are taken out of the incubator and placed in a 37° C. water bath next to the pipette apparatus. The cell plate is taken from the water bath and gently swirled to resuspend any settled cells. With pipettor, the stimulant is dispensed into the cell plate and vortexed at “7” for 5 seconds. The deep well plate is put back into the water bath.
The plate is covered with foil sealer and incubated in a 37° C. water bath for 10 minutes. The plate is spun for 6 minutes at 2000 rpm at room temperature. The cells are aspirated using a 96 well plate aspirator (VP Scientific). The plate is vortexed to resuspend cell pellets in the residual volume. The pellet is ensured to be dispersed before the Methanol step (see cell permeabilization) or clumping will occur.
Cell Permeabilization: Permeability agent, for example methanol, is added slowly and while the plate is vortexing. To do this, the cell plate is placed on titer plate shaker and made sure it is secure. The plate is set to shake using the highest setting. A pipetter is used to add 0.6 mls of 100% methanol to the plate wells. The plate(s) are put on ice until this step has been completed for all plates. Plates are covered with a foil seal using the plate roller to achieve a tight fit. At this stage the plates can be stored at −80° C.
Cells are thawed if frozen. Cells are pelleted at 2000 rpm 5 minutes. Supernatant is aspirated with vacuum aspirator. Plate is vortexed on a “plate vortex” for 5-10 seconds. Cells are washed with 1 mL FACS buffer. Repeat the spin, aspirate and vortex steps as above. 50 μL of FACS/stain buffer with the desired, previously optimized, antibody cocktail is added to two rows of cells at a time and agitate the plate. The plate is covered and incubated in a shaker for 30 minutes at room temperature (RT). During this incubation, the compensation plate is prepared.

[5] = Fold metric, all patients, Study No. 2
[6] = Study No.2, patients less than 60 years old
[7] = Study No.2, patients with De Novo AML
[8] = TotalPhospho metric, all patients, Study No. 2
[9] = Total Phospho metric, Study No. 1, CRp patient included in NR group
[10] = read-out p-CREB, metric TotalPhospho
[11] = read-out p-Stat3, metric TotalPhospho

Compound: Nc1ncn([C@@H]2O[C@H](CO)[C@@H](O)[C@H]2O)c(=O)n1 [AZA, 5-azacytidine]
- timing of induced DNA damage (pH2AX) relative to apoptosis (AML blasts [1]): coincident with apoptosis
- cells induced to undergo apoptosis (AML blasts [2]): 77.5%
- Apo (AML blasts [2]; sample COG-06): + (For Apo, “+” signifies induced apoptosis >50%.)
- cells undergoing apoptosis (AML blasts [2]): 32%
- Apo (AML blasts [2]; sample COG-09): + (For Apo, “+” signifies induced apoptosis >50%.)
- apoptotic cells (AML blasts [2]; sample COG-09): 57%

Compound: Nc1nc(Cl)nc2c1ncn2[C@@H]1O[C@H](CO)[C@@H](O)[C@@H]1F [CLO]
- timing of induced DNA damage (pH2AX) relative to apoptosis (AML blasts [1]): before apoptosis
- DNA damage response (DDR) (AML blasts [1]; sample COG-06): robust DDR
- DDR (AML blasts [1]; sample COG-06): + (For DDR, “+” signifies Log2Fold >0.5 (in live cPARP- cells).)
- DNA damage response (DDR) (AML blasts [1]; sample COG-07): defective DDR
- DNA damage response (DDR) (AML blasts [1]; sample COG-09): robust DDR
- DDR (AML blasts [1]; sample COG-09): + (For DDR, “+” signifies Log2Fold >0.5 (in live cPARP- cells).)
- cells induced to undergo apoptosis (AML blasts [2]): 81%
- Apo (AML blasts [2]; sample COG-06): + (For Apo, “+” signifies induced apoptosis >50%.)
- cells undergoing apoptosis (AML blasts [2]): 20%
- apoptotic cells (AML blasts [2]; sample COG-09): 13%

Compound: Nc1ncn([C@H]2C[C@H](O)[C@@H](CO)O2)c(=O)n1 [DEC]
- cells induced to undergo apoptosis (AML blasts [2]): 55.8%
- Apo (AML blasts [2]; sample COG-06): + (For Apo, “+” signifies induced apoptosis >50%.)
- cells undergoing apoptosis (AML blasts [2]): 29%
- apoptotic cells (AML blasts [2]; sample COG-09): 5%

Compound: IL-6: cytokine modulator
- Mean Value of CRs, p-Stat1 (AML blasts [3]; [5]): −0.01
- Mean Value of CRs, p-Stat3 (AML blasts [3]; [5]): 0.12
- Mean Value of CRs, p-Stat5 (AML blasts [3]; [5]): 0.13
- Mean Value of NRs, p-Stat1 (AML blasts [3]; [5]): 0.26
- Mean Value of NRs, p-Stat3 (AML blasts [3]; [5]): 1.09
- Mean Value of NRs, p-Stat5 (AML blasts [3]; [5]): 0.55
- Mean Value of CRs, p-Stat1 Fold (AML blasts [3]; [6]): −0.02
- Mean Value of CRs, p-Stat3 Fold (AML blasts [3]; [6]): 0.13
- Mean Value of CRs, p-Stat3 TotalPhospho (AML blasts [3]; [6]): 1.77
- Mean Value of CRs, p-Stat5 Fold (AML blasts [3]; [6]): 0.11
- Mean Value of NRs, p-Stat1 Fold (AML blasts [3]; [6]): 0.3
- Mean Value of NRs, p-Stat3 Fold (AML blasts [3]; [6]): 1.67
- Mean Value of NRs, p-Stat3 TotalPhospho (AML blasts [3]; [6]): 4.10
- Mean Value of NRs, p-Stat5 Fold (AML blasts [3]; [6]): 0.58
- Mean Value of CRs, p-Stat1 Fold (AML blasts [3]; [7]): 0.00
- Mean Value of CRs, p-Stat1 TotalPhospho (AML blasts [3]; [7]): 1.06
- Mean Value of CRs, p-Stat3 TotalPhospho (AML blasts [3]; [7]): 1.7
- Mean Value of CRs, p-Stat5 Fold (AML blasts [3]; [7]): 0.12
- Mean Value of NRs, p-Stat1 Fold (AML blasts [3]; [7]): 0.19
- Mean Value of NRs, p-Stat1 TotalPhospho (AML blasts [3]; [7]): 1.67
- Mean Value of NRs, p-Stat3 TotalPhospho (AML blasts [3]; [7]): 3.22
- Mean Value of NRs, p-Stat5 Fold (AML blasts [3]; [7]): 0.47
- Mean Value of CRs, p-Stat3 (AML blasts [3]; [8]): 1.76
- Mean Value of NRs, p-Stat3 (AML blasts [3]; [8]): 2.98
- Mean Value of CRs, p-CREB (AML blasts [4]; [9]): 1.58
- Mean Value of CRs, p-Stat3 (AML blasts [4]; [9]): 1.08
- Mean Value of NRs, p-CREB (AML blasts [4]; [9]): 2.44
- Mean Value of NRs, p-Stat3 (AML blasts [4]; [9]): 1.81
- Mean Value of CRs (AML blasts [4]; [10]): 1.70
- Mean Value of NRs (AML blasts [4]; [10]): 2.43
- Mean Value of CRs (AML blasts [4]; [11]): 1.08
- Mean Value of NRs (AML blasts [4]; [11]): 1.84
